Data: US12655125B2 (SIRONAX LTD., priority 2020, dated 2026)

Tested on: HT-29 cells
Assay: HT29 Cells 0FBS Assay In Vitro (TNF-α/SMAC mimetic/zVAD-FMK induced necroptosis, CellTiter-Glo cell viability)
Assay type: cell-based
Conditions: Homo sapiens; HT-29 cells, FBS free medium, TNF-α (10 ng/ml), SMAC mimetic (6 uM), zVAD-FMK (10 μM), 20 hours; geometric mean EC50; read-out: Cell activity (EC50) of Compounds 117-281
How it was run: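 HT-29 cells (5,000/well, seeded overnight) in serum-free McCoy's 5A were stimulated with TNF-α 10 ng/ml, SMAC mimetic 6 μM and zVAD-FMK 10 μM to induce necroptosis. Compound added as 10-point 3-fold series for 20 h at 37° C. CellTiter-Glo luminescence gives viability; EC50 is geometric mean of duplicate dose-responses.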

Row | SMILES | EC50 [nM]
1 | Cc1cnc(C)n1-c1cc(OC2CN(C(=O)N3N=CC[C@H]3c3cc(F)cc(F)c3)C2)c(F)cn1 [compound 182, (S)-(5-(3,5-difluorophenyl)-4,5-dihydro-1H-pyrazol-1-yl)(3-((2-(2,5-dimethyl-1H-imidazol-1-yl)-5-fluoropyridin-4-yl)oxy)azetidin-1-yl)methanone] | 0.1 to 100
2 | Cc1nn(-c2cc(OC3CN(C(=O)N4N=CC[C@H]4c4cc(F)cc(F)c4)C3)c(F)cn2)c(C)c1C(=O)N1CCCCC1 [compound 183, (S)-(5-(3,5-difluorophenyl)-4,5-dihydro-1H-pyrazol-1-yl)(3-((2-(3,5-dimethyl-4-(piperidine-1-carbonyl)-1H-pyrazol-1-yl)-5-fluoropyridin-4-yl)oxy)azetidin-1-yl)methanone] | 0.1 to 100
3 | Cc1nn(-c2cc(OC3CN(C(=O)N4N=CC[C@H]4c4cc(F)cc(F)c4)C3)c(F)cn2)c(C)c1C(=O)N1CCOCC1 [compound 184, (S)-(5-(3,5-difluorophenyl)-4,5-dihydro-1H-pyrazol-1-yl)(3-((2-(3,5-dimethyl-4-(morpholine-4-carbonyl)-1H-pyrazol-1-yl)-5-fluoropyridin-4-yl)oxy)azetidin-1-yl)methanone] | 0.1 to 100
4 | Cc1cnn(C)c1-c1ccc(F)c(OC2CN(C(=O)N3N=CC[C@H]3c3cc(F)cc(F)c3)C2)n1 [compound 185, (S)-(5-(3,5-difluorophenyl)-4,5-dihydro-1H-pyrazol-1-yl)(3-((6-(1,4-dimethyl-1H-pyrazol-5-yl)-3-fluoropyridin-2-yl)oxy)azetidin-1-yl)methanone] | 0.1 to 100
5 | Cc1c(C#N)nn(C)c1-c1ccc(F)c(OC2CN(C(=O)N3N=CC[C@H]3c3cc(F)cc(F)c3)C2)n1 [compound 186, (S)-5-(6-((1-(5-(3,5-difluorophenyl)-4,5-dihydro-1H-pyrazole-1-carbonyl)azetidin-3-yl)oxy)-5-fluoropyridin-2-yl)-1,4-dimethyl-1H-pyrazole-3-carbonitrile] | 0.1 to 100
6 | Cc1nn(S(C)(=O)=O)c(C)c1-c1cc(OC2CN(C(=O)N3N=CC[C@H]3c3cc(F)cc(F)c3)C2)c(F)cn1 [compound 187, (S)-(5-(3,5-difluorophenyl)-4,5-dihydro-1H-pyrazol-1-yl)(3-((2-(3,5-dimethyl-1-(methylsulfonyl)-1H-pyrazol-4-yl)-5-fluoropyridin-4-yl)oxy)azetidin-1-yl)methanone] | 0.1 to 100
7 | Cc1nc(C#N)sc1-c1cc(OC2CN(C(=O)N3N=CC[C@H]3c3cc(F)cc(F)c3)C2)c(F)cn1 [compound 188, (S)-5-(4-((1-(5-(3,5-difluorophenyl)-4,5-dihydro-1H-pyrazole-1-carbonyl)azetidin-3-yl)oxy)-5-fluoropyridin-2-yl)-4-methylthiazole-2-carbonitrile] | 0.1 to 100
8 | Cc1nc(C(N)=O)sc1-c1cc(OC2CN(C(=O)N3N=CC[C@H]3c3cc(F)cc(F)c3)C2)c(F)cn1 [compound 189, (S)-5-(4-((1-(5-(3,5-difluorophenyl)-4,5-dihydro-1H-pyrazole-1-carbonyl)azetidin-3-yl)oxy)-5-fluoropyridin-2-yl)-4-methylthiazole-2-carboxamide] | 0.1 to 100
9 | Cc1nn(-c2cc(OC3CN(C(=O)N4N=CC[C@H]4c4cc(F)cc(F)c4)C3)c(F)cn2)c(C)c1S(C)(=O)=O [compound 190, (S)-(5-(3,5-difluorophenyl)-4,5-dihydro-1H-pyrazol-1-yl)(3-((2-(3,5-dimethyl-4-(methylsulfonyl)-1H-pyrazol-1-yl)-5-fluoropyridin-4-yl)oxy)azetidin-1-yl)methanone] | 0.1 to 100
10 | Cc1[nH]c(C(N)=O)c(C)c1-c1cc(OC2CN(C(=O)N3N=CC[C@H]3c3cc(F)cc(F)c3)C2)c(F)cn1 [compound 191, (S)-4-(4-((1-(5-(3,5-difluorophenyl)-4,5-dihydro-1H-pyrazole-1-carbonyl)azetidin-3-yl)oxy)-5-fluoropyridin-2-yl)-3,5-dimethyl-1H-pyrrole-2-carboxamide] | 0.1 to 100
11 | Cc1nn(-c2cc(OC3CN(C(=O)N4N=CC[C@H]4c4cc(F)cc(F)c4)C3)c(F)cn2)c(C)c1C(=O)N(C)C [compound 192, (S)-1-(4-((1-(5-(3,5-difluorophenyl)-4,5-dihydro-1H-pyrazole-1-carbonyl)azetidin-3-yl)oxy)-5-fluoropyridin-2-yl)-N,N,3,5-tetramethyl-1H-pyrazole-4-carboxamide] | 0.1 to 100
12 | CNC(=O)c1c(C)nn(-c2cc(OC3CN(C(=O)N4N=CC[C@H]4c4cc(F)cc(F)c4)C3)c(F)cn2)c1C [compound 193, (S)-1-(4-((1-(5-(3,5-difluorophenyl)-4,5-dihydro-1H-pyrazole-1-carbonyl)azetidin-3-yl)oxy)-5-fluoropyridin-2-yl)-N,3,5-trimethyl-1H-pyrazole-4-carboxamide] | 0.1 to 100
13 | Cc1nn(-c2cc(OC3CN(C(=O)N4N=CC[C@H]4c4cc(F)cc(F)c4)C3)c(F)cn2)c(C)c1C(=O)N1CCCC1 [compound 194, (S)-(5-(3,5-difluorophenyl)-4,5-dihydro-1H-pyrazol-1-yl)(3-((2-(3,5-dimethyl-4-(pyrrolidine-1-carbonyl)-1H-pyrazol-1-yl)-5-fluoropyridin-4-yl)oxy)azetidin-1-yl)methanone] | 0.1 to 100
14 | Cc1nn(-c2cc(OC3CN(C(=O)N4N=CC[C@H]4c4cc(F)cc(F)c4)C3)c(F)cn2)c(C)c1C(=O)N1CCC1 [compound 195, (S)-azetidin-1-yl(1-(4-((1-(5-(3,5-difluorophenyl)-4,5-dihydro-1H-pyrazole-1-carbonyl)azetidin-3-yl)oxy)-5-fluoropyridin-2-yl)-3,5-dimethyl-1H-pyrazol-4-yl)methanone] | 0.1 to 100
15 | Cc1c(C(N)=O)nn(C)c1-c1ccc(F)c(OC2CN(C(=O)N3N=CC[C@H]3c3cc(F)cc(F)c3)C2)n1 [compound 196, (S)-5-(6-((1-(5-(3,5-difluorophenyl)-4,5-dihydro-1H-pyrazole-1-carbonyl)azetidin-3-yl)oxy)-5-fluoropyridin-2-yl)-1,4-dimethyl-1H-pyrazole-3-carboxamide] | 0.1 to 100
16 | Cc1cnn(C)c1-c1ccc(F)c(OC2CN(C(=O)N3N=CC[C@H]3c3cc(F)cc(F)c3)C2)c1 [compound 197, (S)-(5-(3,5-difluorophenyl)-4,5-dihydro-1H-pyrazol-1-yl)(3-(5-(1,4-dimethyl-1H-pyrazol-5-yl)-2-fluorophenoxy)azetidin-1-yl)methanone] | 0.1 to 100
17 | Cc1n[nH]c(C)c1-c1ccc(F)c(OC2CN(C(=O)N3N=CC[C@H]3c3cc(F)cc(F)c3)C2)c1 [compound 198, (S)-(5-(3,5-difluorophenyl)-4,5-dihydro-1H-pyrazol-1-yl)(3-(5-(3,5-dimethyl-1H-pyrazol-4-yl)-2-fluorophenoxy)azetidin-1-yl)methanone] | 0.1 to 100
18 | Cc1nc(C#N)c(C)n1-c1cc(OC2CN(C(=O)N3N=CC[C@H]3c3cc(F)cc(F)c3)C2)c(F)cn1 [compound 199, (S)-1-(4-((1-(5-(3,5-difluorophenyl)-4,5-dihydro-1H-pyrazole-1-carbonyl)azetidin-3-yl)oxy)-5-fluoropyridin-2-yl)-2,5-dimethyl-1H-imidazole-4-carbonitrile] | 0.1 to 100
19 | Cc1nc(C(N)=O)c(C)n1-c1cc(OC2CN(C(=O)N3N=CC[C@H]3c3cc(F)cc(F)c3)C2)c(F)cn1 [compound 200, (S)-1-(4-((1-(5-(3,5-difluorophenyl)-4,5-dihydro-1H-pyrazole-1-carbonyl)azetidin-3-yl)oxy)-5-fluoropyridin-2-yl)-2,5-dimethyl-1H-imidazole-4-carboxamide] | 0.1 to 100
20 | Cn1nc(CF)nc1-c1cc(OC2CN(C(=O)N3N=CC[C@H]3c3cc(F)cc(F)c3)C2)c(F)cn1 [compound 201, (S)-(5-(3,5-difluorophenyl)-4,5-dihydro-1H-pyrazol-1-yl)(3-((5-fluoro-2-(3-(fluoromethyl)-1-methyl-1H-1,2,4-triazol-5-yl)pyridin-4-yl)oxy)azetidin-1-yl)methanone] | 0.1 to 100
21 | Cn1nc(CO)nc1-c1cc(OC2CN(C(=O)N3N=CC[C@H]3c3cc(F)cc(F)c3)C2)c(F)cn1 [compound 202, (S)-(5-(3,5-difluorophenyl)-4,5-dihydro-1H-pyrazol-1-yl)(3-((5-fluoro-2-(3-(hydroxymethyl)-1-methyl-1H-1,2,4-triazol-5-yl)pyridin-4-yl)oxy)azetidin-1-yl)methanone] | 0.1 to 100
22 | CSc1c(C)nn(-c2cc(OC3CN(C(=O)N4N=CC[C@H]4c4cc(F)cc(F)c4)C3)c(F)cn2)c1C [compound 203, (S)-(5-(3,5-difluorophenyl)-4,5-dihydro-1H-pyrazol-1-yl)(3-((2-(3,5-dimethyl-4-(methylthio)-1H-pyrazol-1-yl)-5-fluoropyridin-4-yl)oxy)azetidin-1-yl)methanone] | 0.1 to 100
23 | Cc1nn(-c2cc(OC3CN(C(=O)N4N=CC[C@H]4c4cc(F)cc(F)c4)C3)c(F)cn2)c(C)c1[S+](C)[O-] (stereo partly drawn) [compound 204, ((S)-5-(3,5-difluorophenyl)-4,5-dihydro-1H-pyrazol-1-yl)(3-((2-(3,5-dimethyl-4-(methylsulfinyl)-1H-pyrazol-1-yl)-5-fluoropyridin-4-yl)oxy)azetidin-1-yl)methanone] | 0.1 to 100
24 | Cc1n[nH]c(N)c1-c1cc(OC2CN(C(=O)N3N=CC[C@H]3c3cc(F)cc(F)c3)C2)c(F)cn1 [compound 205, (S)-(3-((2-(5-amino-3-methyl-1H-pyrazol-4-yl)-5-fluoropyridin-4-yl)oxy)azetidin-1-yl)(5-(3,5-difluorophenyl)-4,5-dihydro-1H-pyrazol-1-yl)methanone] | 0.1 to 100
25 | Cc1c(-c2cc(OC3CN(C(=O)N4N=CC[C@H]4c4cc(F)cc(F)c4)C3)c(F)cn2)c(C)n(C)c1N [compound 206, (S)-(3-((2-(5-amino-1,2,4-trimethyl-1H-pyrrol-3-yl)-5-fluoropyridin-4-yl)oxy)azetidin-1-yl)(5-(3,5-difluorophenyl)-4,5-dihydro-1H-pyrazol-1-yl)methanone] | 0.1 to 100
